These results are taken from patent publication US20100048462A1, “TRUNCATED PTH PEPTIDES WITH A CYCLIC CONFORMATION” (Zealand Pharma A/S, priority 2006, published 2010).

The target in one test is T1, Saos-2 PTH1R (Homo sapiens, UniProt Q03431).
T1 construct: endogenous in cells; host or cells: Saos-2
T1 sequence (Q03431 27-593): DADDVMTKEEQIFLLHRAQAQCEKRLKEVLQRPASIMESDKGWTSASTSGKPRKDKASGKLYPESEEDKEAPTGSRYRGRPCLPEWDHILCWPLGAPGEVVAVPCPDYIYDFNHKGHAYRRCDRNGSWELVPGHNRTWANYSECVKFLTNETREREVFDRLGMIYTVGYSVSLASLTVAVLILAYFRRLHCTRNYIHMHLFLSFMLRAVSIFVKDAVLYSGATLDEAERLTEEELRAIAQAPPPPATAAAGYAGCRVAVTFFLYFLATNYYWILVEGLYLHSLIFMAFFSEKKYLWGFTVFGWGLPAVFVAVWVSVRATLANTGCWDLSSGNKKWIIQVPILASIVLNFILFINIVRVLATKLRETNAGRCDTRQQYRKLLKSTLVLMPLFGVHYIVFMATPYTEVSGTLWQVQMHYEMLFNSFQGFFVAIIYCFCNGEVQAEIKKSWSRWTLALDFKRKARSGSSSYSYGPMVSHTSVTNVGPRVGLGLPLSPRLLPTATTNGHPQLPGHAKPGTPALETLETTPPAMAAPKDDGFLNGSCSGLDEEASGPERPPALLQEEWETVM
The test is described as follows: cAMP-efficacy assay in Saos-2 cells. It is filed as cell-based. Particulars: for Emax ± SEM: relative effect to the control (SEQ ID NO: 32). The method in brief: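 cAMP accumulation was assayed by FlashPlate after 15 min peptide stimulation at 37 °C of Saos-2 cells in Tyrode's buffer containing 100 μM IBMX and 0.1% BSA, with the reaction stopped by ice-cold HCl. Variable-slope logistic fitting gave EC50/pEC50, Hill coefficient and Emax, with single or triplicate points.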

For another test, the system named is ovariectomized (OVX) rat. Kind of test: OVX rat model, bone strength measurements. It is filed as in vivo. The conditions noted are these: for bone strength of the femoral head in a compression test: FIG. 10; for bone strength of the femoral head in a compression test / bone strength of the femur in a three-point bending test versus vehicle-treated OVX animals: all doses; for bone strength of the femur, shaft region and femoral head region, versus vehicle-treated OVX-group: FIGS. 10 and 11. The procedure: One hundred and seventy-eight female Fisher rats were used for the experiment. Initially the animals were housed in Macrolon type 3 cages (2 rats/cage) under controlled conditions (20° C., 55-85% humidity) following a 12:12-hrs light/dark cycle with light on at 6 am. The animals were fed ad libitum with standard Altromin No. 1324 diet (Chr. Petersen, Ringsted, Denmark). The animals had free access to drinking water (domestic quality tap water added citric acid to pH≈3). At the time of inclusion the animals were 6 months old.
The week before OVX the animals were stratified according to body weight into two groups that were subjected to either OVX (140 animals) or sham operation (38 animals). Rats were anaesthetized with Hypnorm-Dormicum and the ovariectomy was performed through a midline laparotomy. Sham-operated animals were subjected to midline laparotomy, and the ovaries were exposed but not removed (sham). This group served as an age matched non-osteoporotic control group. A microchip was implanted into each rat during surgery, in order to allow identification of the animals.
To allow osteopenia to develop before treatment start, animals were housed for 7 weeks (pre-treatment period) without pharmacological treatment. At the end of the pre-treatment period, sham- and OVX-operated rats were stratified according to bodyweight and divided into six groups of 13-20 animals each (Table 7). At this point, one OVX group (N=20) and one sham group (N=20) were sacrificed. These control groups established baseline levels of bone mineral density (BMD). Furthermore, samples were stored for possible later analysis of bone markers, bone strength, histomorphometry and μCT scans.
For the following 6 weeks one sham group and one OVX group were subjected to vehicle administration (40 mM sodium acetate, 45 mM histidine and 3.9% mannitol, pH 5.5, 300 mOsm/kg). Five OVX groups were treated with increasing doses of the cyclic PTH(1-17) analogue SEQ ID NO: 19. Another OVX group was treated with SEQ ID NO: 33 (Table 7). All drugs were given as s.c. injections. After 6 weeks of treatment the animals were sacrificed. Spine, tibia and femur were collected for analysis of BMD by DEXA-scan and bone samples were stored for later bone strength measurements.
Lumbar vertebrae (L4-L5-L6-S1), left femur and tibia were collected, cleaned, packed in saline moistened gaze in a tube and stored at −20° C. for later ex vivo bone strength measurements. Right femur and tibia as well as lumbar vertebrae (T13-L1-L2-L3) and caudal vertebrae (S2-S3-C1-C2-C3) were collected, cleaned and stored in 70% ethanol for analysis of bone mineral density (BMD) and possible later histomorphometry and/or μCT scanning.
Bone strength measurements were performed on a compression device (Lloyd Instruments, Fareham, UK). Bones were positioned with the help of custom-made holders, in order to achieve maximal reproducibility. Maximal force to fracture was determined.
Overall comparison among groups was performed using one-way ANOVA for one-way classified data (BMD). For individual comparisons among groups, post-hoc analysis was performed using Fisher's least significant difference test. Differences were considered significant at the 5% level. All data are presented as mean±SEM.

Bridge positions count the residues as written; N and C are the ends. Square brackets hold non-standard residues; d marks the D form. Peptide text beside a SMILES is read from it. I, II: the chains in the order shown. hArg = N=C(N)NCCCC[C@H](N)C(=O)O; Ac5c = NC1(C(=O)O)CCCC1; Aib = CC(C)(N)C(=O)O

As for `CC[C@H](C)[C@H](NC(=O)[C@H](CCC(=O)O)NC(=O)C(C)(C)NC(=O)[C@@H](NC(=O)C1(N)CCCC1)C(C)C)C(=O)N[C@@H](CCC(N)=O)C(=O)N[C@@H](CC(C)C)C(=O)N[C@@H](CC(C)C)C(=O)N[C@@H](Cc1c[nH]cn1)C(=O)N[C@@H](CCC(N)=O)C(=O)N[C@@H](CCCCNC(=N)N)C(=O)N[C@@H](C)C(=O)N[C@H]1CCCCNC(=O)C[C@@H](C(N)=O)NC(=O)[C@H](CC(N)=O)NC(=O)[C@H](CC(C)C)NC(=O)[C@H](Cc2c[nH]c3ccccc23)NC1=O` [SEQ ID NO: 19, H-Ac5c-Val-Aib-Glu-Ile-Gln-Leu-Leu-His-Gln-Har-Ala-Lys( )-Trp-Leu-Asn-Asp( )-NH2] (H-[Ac5c]V[Aib]EIQLLHQ[hArg]AKWLND-NH2; lactam 13-17), the EC50 on Saos-2 PTH1R (cAMP, 100 μM IBMX, 37° C. 15 min, suffix of label = salt tested) is 10.2 nM. Moreover, the “Emax ± SEM” value at Saos-2 PTH1R was 1.05 ± 0.04. Moreover, in the test with ovariectomized (OVX) rat, the “bone strength of the femoral head in a compression test” value is “higher than in vehicle-treated OVX and sham animals at all doses”; the “bone strength of the femur, shaft region and femoral head region, versus vehicle-treated OVX-group” value was “significantly increased”. In addition, the “bone strength of the femur in a three-point bending test versus vehicle-treated OVX animals” value in the test on ovariectomized (OVX) rat (FIG. 11) is “higher than in vehicle-treated OVX animals at all doses”. In the test with ovariectomized (OVX) rat (FIG. 11, doses higher than 20 nmol/kg/d), the “bone strength of the femur in a three-point bending test versus vehicle-treated sham animals” value was “increased strength compared to vehicle-treated sham animals”. Moreover, in the test on ovariectomized (OVX) rat (doses greater than 20 nmol/kg/d), the “bone strength versus vehicle-treated sham-operated group” value was “significantly increased”.
As to `CC[C@H](C)[C@H](NC(=O)[C@H](CCC(=O)O)NC(=O)C(C)(C)NC(=O)[C@@H](NC(=O)C1(N)CCCC1)C(C)C)C(=O)N[C@@H](CCC(N)=O)C(=O)N[C@@H](CC(C)C)C(=O)N[C@@H](CCSC)C(=O)N[C@@H](Cc1c[nH]cn1)C(=O)N[C@@H](CCC(N)=O)C(=O)N[C@@H](CCCCNC(=N)N)C(=O)N[C@@H](C)C(=O)N[C@H]1CCCCNC(=O)C[C@@H](C(N)=O)NC(=O)[C@H](CC(C)C)NC(=O)[C@H](Cc2c[nH]c3ccccc23)NC(=O)[C@@H](NC(=O)[C@H](C)NC(=O)[C@H](CCCCNC(=N)N)NC(=O)[C@H](CCC(N)=O)NC(=O)[C@H](Cc2c[nH]cn2)NC(=O)[C@H](CCSC)NC(=O)[C@H](CC(C)C)NC(=O)[C@H](CCC(N)=O)NC(=O)[C@@H](NC(=O)[C@H](CCC(=O)O)NC(=O)C(C)(C)NC(=O)[C@@H](NC(=O)C2(N)CCCC2)C(C)C)[C@@H](C)CC)CCCCNC(=O)C[C@@H](C(N)=O)NC(=O)[C@H](CC(C)C)NC(=O)[C@H](Cc2c[nH]c3ccccc23)NC1=O` [SEQ ID NO: 33, (H-Ac5c-Val-Aib-Glu-Ile-Gln-Leu-Met-His-Gln-Har-Ala-Lys( )-Trp-Leu-Asp( )-NH2)2] (I: H-[Ac5c]V[Aib]EIQLMHQ[hArg]AKWLD-NH2 / II: H-[Ac5c]V[Aib]EIQLMHQ[hArg]AKWLD-NH2; amide I:13-II:16, I:16-II:13 (inferred)), the “Emax ± SEM” value on Saos-2 PTH1R is reported as 1.10 ± 0.04. In the test with ovariectomized (OVX) rat (5 nmol/kg/d), the “bone strength compared to vehicle-treated OVX-group” value is recorded as “significantly increased”. Besides, in the test with ovariectomized (OVX) rat, the “bone strength of the femoral head in a compression test” value is “higher than in vehicle-treated OVX and sham animals at all doses”; the “bone strength of the femur, shaft region and femoral head region, versus vehicle-treated OVX-group” value was “significantly increased”. For the same molecule, the “bone strength of the femur in a three-point bending test versus vehicle-treated OVX animals” value with ovariectomized (OVX) rat (FIG. 11) is listed as “higher than in vehicle-treated OVX animals at all doses”.

The term EC50 denotes the concentration giving half of the maximal effect.
